Data as given in patent US10759781B2, “Substituted guanidine derivatives” (UBE INDUSTRIES, LTD., priority 2015, dated 2020).

How the values were obtained:
[1] = biological target: T1, Human VAP-1 enzyme (Homo sapiens, UniProt Q16853); test: Human VAP-1 enzyme inhibition test; assay type: biochemical; settings: 1 h; compound 30 nM; 14C-benzylamine 100 μM; read-out: inhibition ratio (human VAP-1 enzyme)
T1 construct: purchased R&D Systems, Inc
T1 sequence (Q16853 1-763): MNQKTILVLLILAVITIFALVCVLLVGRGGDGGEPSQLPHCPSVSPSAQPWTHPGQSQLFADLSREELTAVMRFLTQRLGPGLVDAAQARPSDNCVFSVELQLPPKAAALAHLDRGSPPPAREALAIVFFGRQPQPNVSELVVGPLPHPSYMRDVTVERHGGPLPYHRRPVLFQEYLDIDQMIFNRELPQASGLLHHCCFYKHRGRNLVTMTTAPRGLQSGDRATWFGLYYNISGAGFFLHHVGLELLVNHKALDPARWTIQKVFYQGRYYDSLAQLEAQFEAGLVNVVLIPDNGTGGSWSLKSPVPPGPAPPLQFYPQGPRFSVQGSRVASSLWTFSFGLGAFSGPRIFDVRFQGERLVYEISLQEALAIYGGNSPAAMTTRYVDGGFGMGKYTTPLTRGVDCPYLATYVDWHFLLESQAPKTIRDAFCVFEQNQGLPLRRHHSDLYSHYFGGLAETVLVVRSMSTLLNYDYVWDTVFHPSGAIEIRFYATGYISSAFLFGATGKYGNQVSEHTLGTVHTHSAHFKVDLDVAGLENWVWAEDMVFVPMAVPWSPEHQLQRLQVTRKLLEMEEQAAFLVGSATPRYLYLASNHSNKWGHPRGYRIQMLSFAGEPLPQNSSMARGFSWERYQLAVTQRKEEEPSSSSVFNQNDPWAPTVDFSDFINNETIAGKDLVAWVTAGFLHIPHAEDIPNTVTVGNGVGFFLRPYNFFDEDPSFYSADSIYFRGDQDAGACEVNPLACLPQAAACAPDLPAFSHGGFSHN
Summary of the method: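 Activity measured as radioactive oxidation product of 14C-benzylamine (100 μM final), extracted with toluene/ethyl acetate after citric acid stop and scintillation-counted. Enzyme (recombinant human VAP-1) first exposed to compound 20 min at room temperature, reaction then 1 h at 37 °C. Percent inhibition versus DMSO control.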

[2] = biological target: T2, Rat Plasma VAP-1 (Rattus norvegicus, UniProt O08590); test: (Ex vivo) rat plasma VAP-1 inhibition test after oral administration of the compound; assay type: in vivo; settings: 3 hours after oral administration, SD male rats, read-out: inhibition ratio (plasma VAP-1, ex vivo)
T2 construct: from tissue; host or cells: plasma of SD male rats (7-12 weeks old) after oral dosing
T2 sequence (O08590 28-763 limits assumed): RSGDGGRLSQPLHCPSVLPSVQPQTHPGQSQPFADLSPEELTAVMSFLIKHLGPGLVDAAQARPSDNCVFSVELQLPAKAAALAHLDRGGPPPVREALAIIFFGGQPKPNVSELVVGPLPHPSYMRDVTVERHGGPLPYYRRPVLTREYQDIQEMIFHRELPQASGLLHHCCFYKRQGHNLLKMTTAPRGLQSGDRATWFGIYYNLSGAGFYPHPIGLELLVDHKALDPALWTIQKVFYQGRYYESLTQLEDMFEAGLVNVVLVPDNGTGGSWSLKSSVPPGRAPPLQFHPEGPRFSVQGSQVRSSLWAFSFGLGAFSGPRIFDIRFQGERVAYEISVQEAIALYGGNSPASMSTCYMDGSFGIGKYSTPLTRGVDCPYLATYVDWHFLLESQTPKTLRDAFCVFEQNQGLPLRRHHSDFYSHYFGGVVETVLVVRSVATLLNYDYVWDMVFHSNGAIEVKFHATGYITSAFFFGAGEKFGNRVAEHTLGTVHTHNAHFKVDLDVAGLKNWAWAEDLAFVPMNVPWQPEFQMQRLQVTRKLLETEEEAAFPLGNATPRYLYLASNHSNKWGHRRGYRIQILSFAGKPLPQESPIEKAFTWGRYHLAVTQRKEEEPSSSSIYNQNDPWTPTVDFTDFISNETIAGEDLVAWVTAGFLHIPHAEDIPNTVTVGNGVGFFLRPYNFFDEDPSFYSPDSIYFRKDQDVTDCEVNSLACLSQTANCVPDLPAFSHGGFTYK
Experimental: (Ex Vivo) Rat Plasma VAP-1 Inhibition Test after Oral Administration of the Compound
The compound was orally administered (0.3-10 mg/kg) to 7-12 week old SD male rats in the non-fasting state. Under anesthesia, the blood was collected in heparin tubes from the jugular vein before the administration and 3, 8 and 24 hours after the administration. The blood was centrifuged at 14000 rpm for 10 minutes to get plasma. The VAP-1 enzyme activity in the plasma was measured by radiochemical enzyme assay.
The radiochemical enzyme assay was conducted by modifying the method of P. H. Yu et al. (Diabetologia 40 1243 (1997)). ^14C-benzylamine (2.5 μM) was added to the obtained plasma, and was incubated at 37° C. for 3 hours. The reaction was terminated by the addition of 100 μL of 2 M citric acid solution to the reaction solution. The oxidative product was extracted using a toluene/ethyl acetate mixture and the radioactivity was measured with a liquid scintillation counter. The inhibition ratio of the compound was calculated using the following equation. Inhibition ratio={1−[Plasma VAP-1 activity after administration of the compound]/[Plasma VAP-1 activity before administration]}×100

`COCCON=C1CN(c2ncc(-c3cccc(COC(=O)NC(=N)N)c3F)cn2)C1` [Example 12, 2-Fluoro-3-(2-{3-[(2-methoxyethoxy)imino]azetidin-1-yl}pyrimidin-5-yl)benzyl carbamimidoylcarbamate] was tested, and the inhibition at 0.03 µM [1] was ≥ 50% and the inhibition in vivo at 0.3 mg/kg [2] was ≥ 50%.
With `COCC(CON=C1CN(c2ncc(-c3cccc(COC(=O)NC(=N)N)c3F)cn2)C1)OC(C)=O` (stereo not drawn) [Example 20, 1-[({1-[5-(3-{[(Carbamimidoylcarbamoyl)oxy]methyl}-2-fluorophenyl)pyrimidin-2-yl]azetidin-3-ylidene}amino)oxy]-3-methoxypropan-2-yl acetate] the inhibition at 0.03 µM [1] was ≥ 50% and the inhibition in vivo at 0.3 mg/kg [2] was ≥ 50%.
For `CON=C1CN(c2ccc(-c3cccc(COC(=O)NC(=N)N)c3F)cn2)C1` [Example 41, 2-Fluoro-3-{6-[3-(methoxyimino)azetidin-1-yl]pyridin-3-yl}benzyl carbamimidoylcarbamate], the inhibition at 0.03 µM [1] was ≥ 50% and the inhibition in vivo at 0.3 mg/kg [2] was ≥ 50%.
`CON=C1CN(c2ncc(-c3cccc(COC(=O)NC(=N)N)c3F)cc2C)C1` [Example 42, 2-Fluoro-3-{6-[3-(methoxyimino)azetidin-1-yl]-5-methylpyridin-3-yl}benzyl carbamimidoylcarbamate] was tested, and the inhibition at 0.03 µM [1] was ≥ 50% and the inhibition in vivo at 0.3 mg/kg [2] was ≥ 50%.
In the case of `CON=C1CCN(c2ncc(-c3cccc(COC(=O)NC(=N)N)c3F)cn2)CC1` [Example 51, 2-Fluoro-3-{2-[4-(methoxyimino)piperidin-1-yl]pyrimidin-5-yl}benzyl carbamimidoylcarbamate], the inhibition in vivo at 0.3 mg/kg [2] is reported as ≥ 50%.
In the case of `CCON=C1CCN(c2ncc(-c3cccc(COC(=O)NC(=N)N)c3F)cn2)CC1` [Example 53, 3-{2-[4-(Ethoxyimino)piperidin-1-yl]pyrimidin-5-yl}-2-fluorobenzyl carbamimidoylcarbamate], the inhibition in vivo at 0.3 mg/kg [2] is reported as ≥ 50%.
In the case of `N=C(N)NC(=O)OCc1cccc(-c2cnc(N3CCC(=NOCCOC4CCCCO4)CC3)nc2)c1F` (stereo not drawn) [Example 57, 2-Fluoro-3-{2-[4-({2-[(tetrahydropyran-2-yl)oxy]ethoxy}imino)piperidin-1-yl]pyrimidin-5-yl}benzyl carbamimidoylcarbamate], the inhibition at 0.03 µM [1] is reported as ≥ 50% and the inhibition in vivo at 0.3 mg/kg [2] is reported as ≥ 50%.
For `COCCON=C1CCN(c2ncc(-c3cccc(COC(=O)NC(=N)N)c3F)cn2)CC1` [Example 60, 2-Fluoro-3-(2-{4-[(2-methoxyethoxy)imino]piperidin-1-yl}pyrimidin-5-yl)benzyl carbamimidoylcarbamate], the inhibition at 0.03 µM [1] was ≥ 50% and the inhibition in vivo at 0.3 mg/kg [2] was ≥ 50%.
In the case of `CC(=O)OCCON=C1CCN(c2ncc(-c3cccc(COC(=O)NC(=N)N)c3F)cn2)CC1` [Example 68, 2-[({1-[5-(3-{[(Carbamimidoylcarbamoyl)oxy]methyl}-2-fluorophenyl)pyrimidin-2-yl]piperidin-4-ylidene}amino)oxy]ethyl acetate], the inhibition at 0.03 µM [1] is reported as ≥ 50% and the inhibition in vivo at 0.3 mg/kg [2] is reported as ≥ 50%.
In the case of `CO/N=C1\CCN(c2ncc(-c3cccc(COC(=O)NC(=N)N)c3F)cn2)C1` [Example 69, (E/Z)-2-fluoro-3-{2-[3-(methoxyimino)pyrrolidin-1-yl]pyrimidin-5-yl}benzyl carbamimidoylcarbamate], the inhibition at 0.03 µM [1] is reported as ≥ 50% and the inhibition in vivo at 0.3 mg/kg [2] is reported as ≥ 50%.
In the case of `N=C(N)NC(=O)OCc1cccc(-c2cnc(N3CC(=NO)C3)nc2)c1F` [Example 70, 2-Fluoro-3-{2-[3-(hydroxyimino)azetidin-1-yl]pyrimidin-5-yl}benzyl carbamimidoylcarbamate], the inhibition at 0.03 µM [1] is reported as ≥ 50% and the inhibition in vivo at 0.3 mg/kg [2] is reported as ≥ 50%.
With `N=C(N)NC(=O)OCc1cccc(-c2cnc(N3CC(=NOCCCO)C3)nc2)c1F` [Example 72, 2-Fluoro-3-(2-{3-[(3-hydroxypropoxy)imino]azetidin-1-yl}pyrimidin-5-yl)benzyl carbamimidoylcarbamate] the inhibition at 0.03 µM [1] was ≥ 50% and the inhibition in vivo at 0.3 mg/kg [2] was ≥ 50%.
`N=C(N)NC(=O)OCc1cccc(-c2cnc(N3CC(=NOCC(CO)COC(=O)c4ccccc4)C3)nc2)c1F` (stereo not drawn) [Example 83, 3-[({1-[5-(3-{[(Carbamimidoylcarbamoyl)oxy]methyl}-2-fluorophenyl)pyrimidin-2-yl]azetidin-3-ylidene}amino)oxy]-2-(hydroxymethyl)propyl benzoate] was tested, and the inhibition in vivo at 0.3 mg/kg [2] was ≥ 50%.
With `CCOC(=O)CCON=C1CCN(c2ncc(-c3cccc(COC(=O)NC(=N)N)c3F)cn2)CC1` [Example 149, Ethyl 3-[({1-[5-(3-{[(carbamimidoylcarbamoyl)oxy]methyl}-2-fluorophenyl)pyrimidin-2-yl]piperidin-4-ylidene}amino)oxy]propanoate] the inhibition in vivo at 0.3 mg/kg [2] was ≥ 50%.
In the case of `O=C(O)/C=C\C(=O)O.[2H]C([2H])([2H])ON=C1CN(c2ncc(-c3cccc(COC(=O)NC(=N)N)c3F)cn2)C1` [Example 194, 2-Fluoro-3-(2-{3-[(methoxy-d3)imino]azetidin-1-yl}pyrimidin-5-yl)benzyl carbamimidoylcarbamate maleate], the inhibition at 0.03 µM [1] is reported as ≥ 50%.
In the case of `O=C(O)CCC(=O)O.[2H]C([2H])([2H])ON=C1CN(c2ncc(-c3cccc(COC(=O)NC(=N)N)c3F)cn2)C1` [Example 195, 2-Fluoro-3-(2-{3-[(methoxy-d3)imino]azetidin-1-yl}pyrimidin-5-yl)benzyl carbamimidoylcarbamate 1/2 succinate], the inhibition at 0.03 µM [1] is reported as ≥ 50%.
`N=C(N)NC(=O)OCc1cccc(-c2cnc(N3CC(=NOCCF)C3)nc2)c1F` [Example 196, 2-Fluoro-3-(2-{3-[(2-fluoroethoxy)imino]azetidin-1-yl}pyrimidin-5-yl)benzyl carbamimidoylcarbamate 1/2 L-tartrate] was tested, and the inhibition at 0.03 µM [1] was ≥ 50%.
In the case of `O=C(O)C(O)C(O)C(=O)O.[2H]C([2H])([2H])ON=C1CN(c2ncc(-c3cccc(COC(=O)NC(=N)N)c3F)cc2F)C1` [Example 204, 2-Fluoro-3-(5-fluoro-6-{3-[(methoxy-d3)imino]azetidin-1-yl}pyridin-3-yl)benzyl carbamimidoylcarbamate 1/2 L-tartrate], the inhibition at 0.03 µM [1] is reported as ≥ 50%.
`O=C(O)/C=C\C(=O)O.[2H]C([2H])([2H])ON=C1CN(c2ncc(-c3cccc(COC(=O)NC(=N)N)c3F)cc2F)C1` [Example 206, 2-Fluoro-3-(5-fluoro-6-{3-[(methoxy-d3)imino]azetidin-1-yl}pyridin-3-yl)benzyl carbamimidoylcarbamate maleate] was tested, and the inhibition at 0.03 µM [1] was ≥ 50%.
For `O=C(O)CCC(=O)O.[2H]C([2H])([2H])ON=C1CN(c2ncc(-c3cccc(COC(=O)NC(=N)N)c3F)cc2F)C1` [Example 207, 2-Fluoro-3-(5-fluoro-6-{3-[(methoxy-d3)imino]azetidin-1-yl}pyridin-3-yl)benzyl carbamimidoylcarbamate 1/2 succinate], the inhibition at 0.03 µM [1] was ≥ 50%.
